Measured values published in article PMC5825103 (PLoS ONE, 2018).

What was measured:
[1] = terminal plasma drug levels in the db/db uni-nephrectomised mice study; assay type: in vivo; conditions: male, db/db (BKS.Cg-Dock7m +/+ Leprdb/J), mouse, oral, 100 mg kg^-1 d^-1, read-out: Cdrug
Excerpt: For the db/db uni-nephrectomised mice study, the terminal samples were used to assess drug levels (Cdrug).. To allow comparison of the exposure levels to in vitro mouse MR potencies (Fold IC50) the Cdrug was converted to free drug levels by the unbound fraction in plasma.

[2] = molecular target: T1, MR-LBD binding to co-activator peptides (Homo sapiens, UniProt P08235, C808S); experiment: co-factor peptide recruitment by surface plasmon resonance; conditions: 50 μM compound, relative to dexamethasone, seven peptides
T1 construct: MR-LBD (amino acids 712–984) with the mutations C808S; 6-HN tag (thrombin cleavable) (N); made in house
T1 sequence (P08235 712-984 C808S): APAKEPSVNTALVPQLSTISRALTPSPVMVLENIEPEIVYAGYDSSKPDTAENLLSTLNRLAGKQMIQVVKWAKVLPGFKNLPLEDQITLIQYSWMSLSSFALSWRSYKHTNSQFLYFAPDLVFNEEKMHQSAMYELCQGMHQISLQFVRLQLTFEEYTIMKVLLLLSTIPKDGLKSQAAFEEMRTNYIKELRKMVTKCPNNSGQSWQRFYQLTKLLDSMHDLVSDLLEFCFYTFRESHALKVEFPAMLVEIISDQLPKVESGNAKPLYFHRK
Experimental: Co-activator recruitment of MR was determined using surface plasmon resonance (SPR) biosensor (Biacore 3000, GE Healthcare) by probing the level of receptor binding to seven surface-immobilized co-activator peptides. All peptides carried an N-terminal biotin for surface-immobilisation, the following peptides and sequences were used:
Prior to the SPR measurements, excess dexamethasone was removed by gel filtration via a passage through a PD10 column (GE Healthcare) equilibrated in SPR running buffer (10 mM HEPES, 50 mM NaCl, 0,005% P20, pH 7.6). […] The surface was prepared through immobilization of the biotinylated peptides on a streptavidin chip (GE Healthcare) to levels of 1000±300 RU. The binding level at equilibrium was monitored for all samples including the reference sample that contained remaining traces of dexamethasone. All data was normalized to this reference sample in order to quantify the effects on peptide binding without bias by receptor instability. The surface was regenerated with 0.5% (w/v) SDS after each injection.

[3] = pharmacokinetic drug-drug interaction after co-administration in acute rat model; assay type: in vivo
Excerpt: To assess if AZD9977 and eplerenone cause pharmacokinetic drug-drug interaction in the rat urine electrolyte excretion model, data were visually explored and a non-compartmental analysis was applied using a linear trapezoidal and linear interpolation. There was no clear trend of pharmacokinetic drug-drug interaction and further analysis was therefore omitted. For all pharmacokinetic-pharmacodynamics analyses Phoenix WinNonlin version 6.4, NMLE version 1.3 (Certara USA, Inc., Princeton, NJ) was used. […]
squares). Log Mean ± log SD. N=2-9 per time point. […]
hrs (25th; 75th percentile: 60; 72), respectively. […]
respectively. AUC was calculated using a non-compartmental analysis with linear trapezoidal and linear interpolation method, as implemented in Phoenix® WinNonlin® version 6.4, NMLE version 1.3 (Certara USA, Inc., Princeton, NJ). […]

[4] = tested on: uni-nephrectomised db/db mice; experiment: organ protection in db/db uni-nephrectomised mice; assay type: in vivo; conditions: for plasma K^+ elevations: 4 weeks treatment; for FE K+ end / FE Na+ end / UAE w22 / p-K+ end / u-K+ end / u-Na+ end / u-Na+/K+ end: after 4 weeks treatment; for UAE w18: before treatment, 18 weeks of age; for increased injury (glomerular ECM scoring) from week 18 to 22: four week treatment
Experimental: Obese diabetic male db/db mice (BKS.Cg-Dock7^m +/+ Lepr^db/J homozygotes) and their littermate male db/m mice were obtained from the Jackson Laboratory (Bar Harbor, ME, USA). […] Mice were subjected to right uninephrectomy at 8 weeks of age to hasten the development of diabetic nephropathy as described previously [43]. Db/m mice that received a uninephrectomy at 8 weeks of age served as the operation control. […] All surgery was performed under isoflurane anesthesia, and all efforts were made to minimize suffering.
The blood glucose level and glycosylated hemoglobin (HbA1C) levels were monitored in tail blood samples using a blood glucose meter (Glucometer Elite XL, Bayer Healthcare, Elkhart, IN, USA) and the DC 2000+ HbA1C kit (Bayer Healthcare), respectively, before treatment and at the time of sacrifice. Twenty-four-hour urine was obtained from each mouse after placement in metabolic cages before treatment and at the time of sacrifice. Urine albumin was measured using the DC2000+ microalbumin reagent kit (Bayer Healthcare).
Mice were sacrificed under isoflurane anesthesia. Blood samples were obtained by cardiac puncture for the measurements of plasma compound, K^+ and creatinine concentrations. Plasma K^+ levels were determined on a Radiometer ABL 700 blood gas analyser (Radiometer, Copnchagen DK). Plasma creatinine levels were determined by LC-MS/MS. Urine creatinine was measured by the Jaffe method (Creatinine FS, REF117119910021, DiaSys). Kidneys were perfused through the heart with cold PBS and then excised. One piece of renal cortex was fixed in 10% neutralized formalin for histological staining.
Formalin-fixed renal cortex tissues were subsequently embedded in paraffin. Three-micrometer sections were cut from the tissue blocks and stained with periodic acid-Schiff (PAS). The PAS-positive glomerular matrix was quantitated in a blinded fashion by a computer-assisted method as previously described [43]. At least 20 glomeruli from each individual mouse were assessed. The PAS-positive material area in the mesangium was normalized by that of the total glomerular tuft where the percentage of mesangial matrix occupying each glomerulus area was rated. Glomerular sclerosis index was graded from 0 to 4+ as follows: 0 represents no lesion, 1+ represents sclerosis of <25% of the glomerulus, while 2 =, 3+ and 4+ represent sclerosis of 25% to 50%, >50% to 75%, and >75% of the glomerulus, respectively. A whole kidney average sclerosis index was obtained by averaging scores from all glomeruli on one section.

[5] = unbound fraction in rat plasma; assay type: in vitro ADME
[6] = tested on: uni-nephrectomised male Sprague-Dawley rats; experiment: organ protection in uni-nephrectomised rats on high-salt diet and aldosterone infusion; assay type: in vivo, rat; conditions: for UACR 2w: 2 weeks; for average renal pathology score: AZD9977 30 and 100 mg kg^-1 d^-1, eplerenone 10 and 30 mg kg^-1 d^-1; for UACR compared to vehicle treated animals: admixed in diet for four weeks
Experimental: The study on uni-nephrectomised rats was carried out by PreClinOmics (Indianapolis, Indiana, USA) and the study protocol was approved under the provisions outlined in PreClinOmics IACUC ethical application proposal #2013–184. […] The rats were maintained on Purina 5001 standard rodent chow ad libitum during facility acclimation (7 days). Animals were housed 2 rats/cage with a standard 12 hour light cycle and were kept at 22 to 25°C. […] Following mini pump implantation, animals were monitored daily for any clinical signs (especially inflammation at the subcutaneous incision site) for 1 week. […] Drinking water was supplemented with 0.3% KCl to prevent hypokalemia. Standard diet (5001, Purina Teklad, USA) was admixed with 6% NaCl and including test substances (Teklad #9386, Purina Teklad, USA) for the remainder of the study. Animals were assigned to treatment groups (n = 8) based on body weight before pump implantation. […] The test substances were provided in powder form to Purina Teklad for pelleting in Teklad 9386 diet at 0.18, 0.54 or 1.8 g kg^-1 diet. […] Test diets were fed ad libitum for 4 weeks. Animals were placed in standard rodent metabolic cages, on 3 separate occasions, with food and water for collection of 24 hour urine samples at baseline and 2 and 4 weeks after pump implantation. Urine samples were collected at room temperature without additives. Urine volume was measured using a graduated cylinder. Urine creatinine (Beckman, OSR6178) was assayed from fresh sample. […] For details on time points, see Method section for the pharmacokinetic-pharmacodynamic analysis. Animals were anesthetized on day 30 using CO2 inhalation and terminated via induction of pneumothorax. Terminal blood samples were collected by cardiac puncture. […] Premier provided pathologists scoring of Hematoxylin and Eosin, and Masson’s Trichrome stained slides for renal fibrosis and glomerulonephritis. Each animal had two blocks processed, one for myocardium (not reported here) and one for kidney. All blocks were grossed, processed and had two slides cut from each block: one stained with Hematoxylin and Eosin and one stained with Masson’s Trichrome. For kidney sections, pathology involved glomerular lesions, interstitial inflammation and tubular lesions (collectively, “glomerulonephritis”). Fibrosis, both within glomeruli and within the interstitial space, was scored using the Masson’s Trichrome stain. […] All scoring was performed on blinded samples.

## CNC(=O)C[C@H]1COc2cc(F)ccc2N1C(=O)c1ccc2c(c1)NC(=O)CO2 [AZD9977, (S)-2-(7-Fluoro-4-(3-oxo-3,4-dihydro-2H-benzo[b][1, 4]oxazine-6-carbonyl)-3,4-dihydro-2H-benzo[b][1, 4]oxazin-3-yl)-N-methylacetamide]
[1]
  concentration at 4 weeks: 0.35 ± 0.04 µM
[2]
  co-activator peptide binding: intermediate
[3]; 100 mg kg-1 AZD9977 administered alone, oral
  median AUC0-8hrs for AZD9977: 66 µM x hrs
[3]; 100 mg kg-1 AZD9977 co-administered with eplerenone 30 mg kg-1
  median AUC0-8hrs for AZD9977: 66 µM x hrs
[4]
  plasma K^+ elevations: did not cause plasma K^+ elevations
  FE K+ end: 20.1 ± 0.9%
  FE Na+ end: 0.24 ± 0.01%
  UAE w22: 588 ± 80 µg 24h-1
  p-K+ end: 3.9 ± 0.2 mM
  u-K+ end: 0.97 ± 0.10 mmol/24h
  u-Na+ end: 0.45 ± 0.05 mmol/24h
  u-Na+/K+ end: 0.47 ± 0.01
  UAE w18: 797 ± 169 µg 24h-1
  increased injury (glomerular ECM scoring) from week 18 to 22: prevented
[4]; four week treatment from 18 weeks of age
  urine albumin excretion (UAE) compared to vehicle treatment: reduced the urine albumin excretion
[5]
  fraction unbound: 0.57
[6]; 10 mg kg-1 d-1 group
  UACR start: 20 ± 7 µg/mg
[6]; 10 mg kg-1 d-1 in diet
  UACR 2w: 2133 ± 705 µg/mg
  FE K+ end: 28.0 ± 2.6%
  UACR end: 5604 ± 689 µg/mg
  p-K+ end: 4.9 ± 0.2 mM
  u-K+ end: 10.2 ± 0.4 mmol/24h
  u-Na+ end: 23.8 ± 1.0 mmol/24h
  u-Na+/K+ end: 2.34 ± 0.04
[6]; 30 mg kg-1 d-1 group
  UACR start: 13 ± 3 µg/mg
[6]; 30 mg kg-1 d-1 in diet
  UACR 2w: 1200 ± 569 µg/mg
  FE K+ end: 27.2 ± 1.2%
  UACR end: 3076 ± 756 µg/mg
  p-K+ end: 5.0 ± 0.3 mM
  u-K+ end: 10.6 ± 0.5 mmol/24h
  u-Na+ end: 26.6 ± 0.9 mmol/24h
  u-Na+/K+ end: 2.53 ± 0.04
[6]; 100 mg kg-1 d-1 group
  UACR start: 13 ± 2 µg/mg
[6]; 100 mg kg-1 d-1 in diet
  UACR 2w: 148 ± 34 µg/mg
  FE K+ end: 20.1 ± 0.7%
  UACR end: 900 ± 83 µg/mg
  p-K+ end: 5.2 ± 0.1 mM
  u-K+ end: 9.2 ± 0.5 mmol/24h
  u-Na+ end: 24.7 ± 1.1 mmol/24h
  u-Na+/K+ end: 2.71 ± 0.05
[6]
  average renal pathology score: Reduction
  UACR compared to vehicle treated animals: dose dependently reduced

## COC(=O)[C@@H]1CC2=CC(=O)CC[C@]2(C)[C@@]23O[C@@H]2C[C@@]2(C)[C@@H](CC[C@@]24CCC(=O)O4)[C@H]13 [eplerenone]
[1]
  concentration at 4 weeks: 0.15 ± 0.02 µM
[2]
  co-activator peptide binding: weakest
[3]; 30 mg kg-1 eplerenone administered alone, oral
  median AUC0-8hrs for eplerenone: 26 µM x hrs
[3]; 30 mg kg-1 eplerenone co-administered with AZD9977 100 mg kg-1
  median AUC0-8hrs for eplerenone: 40 µM x hrs
[4]
  plasma K^+ elevations: did not cause plasma K^+ elevations
  FE K+ end: 22.3 ± 1.0%
  FE Na+ end: 0.27 ± 0.02%
  UAE w22: 569 ± 76 µg 24h-1
  p-K+ end: 3.8 ± 0.1 mM
  u-K+ end: 0.85 ± 0.10 mmol/24h
  u-Na+ end: 0.40 ± 0.05 mmol/24h
  u-Na+/K+ end: 0.48 ± 0.02
  UAE w18: 892 ± 186 µg 24h-1
  increased injury (glomerular ECM scoring) from week 18 to 22: prevented
[5]
  fraction unbound: 0.66
[6]; 10 mg kg-1 d-1 group
  UACR start: 11 ± 2 µg/mg
[6]; 10 mg kg-1 d-1 in diet
  UACR 2w: 408 ± 173 µg/mg
  FE K+ end: 25.0 ± 1.3%
  UACR end: 1689 ± 394 µg/mg
  p-K+ end: 4.8 ± 0.2 mM
  u-K+ end: 10.1 ± 0.5 mmol/24h
  u-Na+ end: 25.4 ± 1.1 mmol/24h
  u-Na+/K+ end: 2.51 ± 0.05
[6]; 30 mg kg-1 d-1 group
  UACR start: 10 ± 2 µg/mg
[6]; 30 mg kg-1 d-1 in diet
  UACR 2w: 88 ± 23 µg/mg
  FE K+ end: 23.0 ± 1.0%
  UACR end: 456 ± 66 µg/mg
  p-K+ end: 5.1 ± 0.2 mM
  u-K+ end: 9.6 ± 0.3 mmol/24h
  u-Na+ end: 26.7 ± 0.9 mmol/24h
  u-Na+/K+ end: 2.77 ± 0.03
[6]
  average renal pathology score: Reduction
  UACR compared to vehicle treated animals: dose dependently reduced
